Data: patent US7365069B2, “Pyrimidone derivatives” (Bexel Pharmaceuticals Inc., priority 2002, dated 2008)

How the values were obtained:
[1] = test system: IL-6; assay: IL-6 production in LPS-stimulated human whole blood; format: cell-based; details: LPS 4 h
Description: This assay determines the effect of test compounds on the production of IL-6 from human whole blood. Compounds are tested for their ability to downregulate the production of IL-6 in activated whole blood. The test compounds are pre-incubated for 15 minutes at 37° C. and then stimulated with Lipopolysaccharide (Salmonella abortus equi, 1 μg/ml) for 4 h at 37° C. in 5% CO2. The levels of Interleukin-6 are estimated using Enzyme linked Immunosorbent assay performed in a 96 well format as per the procedure of the manufacturer (Cayman Chemical, Ann Arbor, USA).

[2] = test system: Male Wistar rats; assay: Rat carrageenan paw edema test; format: in vivo; details: 10 mg/kg body weight, oral, paw volume 3 hours after carrageenan, read-out: Rat Paw Edema model % inhibition
Description: Rat Carrageenan Paw Edema Test
(§1) The carrageenan paw edema test is performed as described by Winter et al (Proc. Soc. Exp. Biol. Med, 111, 544, 1962). Male Wistar rats are selected and the body weights are equivalent within each group. The rats are fasted for eighteen hours with free access to water. The rats are dosed orally with the test compound suspended in vehicle containing 0.5% methylcellulose. The control rats are administered the vehicle alone. After an hour, the rats are injected with 0.1 ml of 1% Carrageenan solution in 0.9% saline into the sub-plantar surface of the right hind paw. Paw volume is measured using water plethysmograph before and after 3 hours of carrageenan injection. The average of foot swelling in drug treated animals is compared with that of control animals. Anti-inflammatory activity is expressed as the percentage inhibition of edema compared with control group [Arzneim-Forsch/Drug Res., 43(I), 1, 44-50,1993; Ottemess and Bliven, Laboratory Models for Testing NSAIDs, In Non-Steroidal Anti-Inflammatory Drugs, (J. Lombardino, ed. 1985)]. In order to evaluate their role on the ulcer formation, the animals are sacrificed and the stomach is taken out and flushed with 1% formalin. The stomach is opened along the greater curvature. The haemorrhagic puncta and sulci are identified microscopically and images are captured. The stomach lesions are calculated.

[3] = test system: Male Wistar rats; assay: Gastroulcerogenic potential (stomach lesions after the paw edema test); format: in vivo; details: 10 mg/kg body weight, oral, rat
Description: as §1

[4] = target: T1, COX-2 (Homo sapiens, UniProt P35354); assay: Human whole blood assay, COX-2 inhibition (PGE2 ELISA after LPS); format: cell-based; details: LPS 24 h
T1 construct: incubation of human blood with lipopolysaccharide (LPS), which induces COX-2 production in the blood; endogenous in cells; host or cells: fresh human whole blood from volunteers, treated with aspirin and then LPS
T1 sequence (P35354 18-604): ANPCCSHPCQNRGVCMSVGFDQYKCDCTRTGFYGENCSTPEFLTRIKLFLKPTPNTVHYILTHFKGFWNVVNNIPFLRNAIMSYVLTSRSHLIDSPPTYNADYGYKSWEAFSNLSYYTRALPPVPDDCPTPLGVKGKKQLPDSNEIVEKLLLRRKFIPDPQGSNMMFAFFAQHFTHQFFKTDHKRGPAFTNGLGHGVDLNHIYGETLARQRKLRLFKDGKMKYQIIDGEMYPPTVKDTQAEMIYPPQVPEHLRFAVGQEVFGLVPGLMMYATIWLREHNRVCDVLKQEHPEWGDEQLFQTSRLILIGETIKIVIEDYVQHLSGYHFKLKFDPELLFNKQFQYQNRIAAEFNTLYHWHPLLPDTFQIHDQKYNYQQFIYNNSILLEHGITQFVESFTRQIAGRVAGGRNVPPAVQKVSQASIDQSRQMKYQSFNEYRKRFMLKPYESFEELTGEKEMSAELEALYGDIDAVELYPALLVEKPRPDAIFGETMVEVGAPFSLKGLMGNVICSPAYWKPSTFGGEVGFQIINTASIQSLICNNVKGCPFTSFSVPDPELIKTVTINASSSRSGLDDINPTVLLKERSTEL
Procedure, shortened: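 Fresh EDTA blood from healthy male donors was given aspirin (10 μg/ml) to inactivate COX-1. LPS (10 μg/ml) was then added together with test agent or vehicle, and the blood was incubated 24 h at 37° C. Plasma PGE2 was measured by ELISA.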

[5] = test system: TNF-α; assay: TNF-α production in LPS-stimulated human whole blood; format: cell-based; details: LPS 4 h
Procedure, shortened: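 Human whole blood pre-incubated with compound 15 min at 37° C., then stimulated with LPS (Salmonella abortus equi, 1 μg/ml) for 4 h at 37° C. in 5% CO2. TNF-α quantified by ELISA.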

[6] = test system: MCF-7; assay: DTP human tumor cell line one-dose prescreen, MCF-7; format: cell-based; details: MCF7, 48 hours, Alamar Blue, test/control, read-out: Percentage growth Breast MCF-7
[7] = test system: NCI-H460; assay: DTP human tumor cell line one-dose prescreen, NCI-H460; format: cell-based; details: 48 hours, Alamar Blue, test/control, read-out: Percentage growth Lung NCI-H460
[8] = test system: SF-268; assay: DTP human tumor cell line one-dose prescreen, SF-268; format: cell-based; details: 48 hours, Alamar Blue, test/control, read-out: Percentage growth CNS SF-268

Structure (SMILES)	inhibition in vivo at 10 mg/kg [2]	Gastroulcerogenic potential (% incidence of ulceration) [3]	melting point	inhibition at 1 µM [1]	activity at 50 µM [6]	activity at 50 µM [7]	activity at 50 µM [8]	further results
CSc1ccc(-n2c(-c3ccc(Cl)cc3)nc(SC)c(C#N)c2=O)cc1 [Example 1, 5-cyano-2-(4-chlorophenyl)-4-(methylthio)-1-[4-(methylthio)phenyl]-6-oxo-1,6-dihydropyrimidine]	29%	75%	206 to 207 °C	–	–	–	–	inhibition at 0.1 µM ([1]; 0.1 μM): 52.8%; inhibition at 10 µM ([4]; 10 μM): 13%; inhibition at 0.1 µM ([5]; 0.1 μM): 56.9%
CSc1ccc(-c2nc(SC)c(C#N)c(=O)n2-c2ccc(C)cc2)cc1 [Example 6, 5-cyano-1-(4-methylphenyl)-4-(methylthio)-2-[4-(methylthio)phenyl]-6-oxo-1,6-dihydropyrimidine]	40.2%	25%	196 to 198 °C	–	–	–	–	inhibition at 0.25 µM ([1]; 0.25 μM): 41.4%; inhibition at 1 µM ([4]; 1 μM): 55.7%; inhibition at 1 µM [5]: 28.8%
CSc1nc(-c2ccc(S(C)(=O)=O)cc2)n(-c2ccc(C)cc2)c(=O)c1C#N [Example 7, 5-cyano-2-[(4-methylsulphonyl)phenyl]-4-(methylthio)-1-(4-methylphenyl)-6-oxo-1,6-dihydropyrimidine]	28.1%	25%	242 to 244 °C	37.1%	–	–	–	inhibition at 0.25 µM ([4]; 0.25 μM): 31.7%
CSc1ccc(-c2nc(SC)c(C#N)c(=O)n2-c2ccc(C)c(C)c2)cc1 [Example 10, 5-cyano-1-(3,4-dimethylphenyl)-4-(methylthio)-2-[4-(methylthio)phenyl]-6-oxo-1,6-dihydropyrimidine]	68.6%	0%	234 to 236 °C	48.6%	–	–	–	inhibition at 0.1 µM ([4]; 0.1 μM): 62.8%; inhibition at 10 µM ([5]; 10 μM): 26.4%
CSc1ccc(-c2nc(SC)c(C#N)c(=O)n2-c2ccc(C(C)(C)C)cc2)cc1 [Example 22, 1-(4-tert-butylphenyl)-5-cyano-4-(methylthio)-2-[4-(methylthio)phenyl]-6-oxo-1,6-dihydropyrimidine]	–	–	233 to 236 °C	66.3%	83%	80%	–	inhibition at 1 µM [5]: 62.7%
CNc1nc(-c2ccc(F)cc2)n(-c2ccc(S(C)(=O)=O)cc2)c(=O)c1C(N)=O [Example 49, 5-carboxamido-2-(4-fluorophenyl)-4-(methylamino)-1-[4-(methylsulfonyl)phenyl]-6-oxo-1,6-dihydropyrimidine]	–	–	> 300 °C	–	79%	72%	88%	–
CS(=O)(=O)c1ccc(-n2c(-c3ccc(F)cc3)nc(N3CCOCC3)c(C(N)=O)c2=O)cc1 [Example 50, 5-carboxamido-2-(4-fluorophenyl)-1-[4-(methylsulfonyl)phenyl]-4-morpholin-4-yl-6-oxo-1,6-dihydropyrimidine]	–	–	255 to 258 °C	–	92%	94%	97%	–
CNc1nc(-c2ccc(F)cc2)n(-c2ccc(SC)cc2)c(=O)c1C#N [Example 56, 5-cyano-2-(4-fluorophenyl)-4-(methylamino)-1-[4-(methylthio)phenyl]-6-oxo-1,6-dihydropyrimidine]	–	–	219 to 222 °C	–	63%	54%	87%	–
